From patent EP4741383A1, “COMPOUND AND USE THEREOF AS ANTI-CANCER DRUG” (Tyligand Bioscience (Shanghai) Limited, priority 2023, dated 2025) come the findings set out here.

One series has as its target T1, CYP1A2 (Homo sapiens, UniProt P05177).
T1 construct: tissue Corning or Xenotech; host or cells: human liver microsomes
T1 sequence (P05177 1-516): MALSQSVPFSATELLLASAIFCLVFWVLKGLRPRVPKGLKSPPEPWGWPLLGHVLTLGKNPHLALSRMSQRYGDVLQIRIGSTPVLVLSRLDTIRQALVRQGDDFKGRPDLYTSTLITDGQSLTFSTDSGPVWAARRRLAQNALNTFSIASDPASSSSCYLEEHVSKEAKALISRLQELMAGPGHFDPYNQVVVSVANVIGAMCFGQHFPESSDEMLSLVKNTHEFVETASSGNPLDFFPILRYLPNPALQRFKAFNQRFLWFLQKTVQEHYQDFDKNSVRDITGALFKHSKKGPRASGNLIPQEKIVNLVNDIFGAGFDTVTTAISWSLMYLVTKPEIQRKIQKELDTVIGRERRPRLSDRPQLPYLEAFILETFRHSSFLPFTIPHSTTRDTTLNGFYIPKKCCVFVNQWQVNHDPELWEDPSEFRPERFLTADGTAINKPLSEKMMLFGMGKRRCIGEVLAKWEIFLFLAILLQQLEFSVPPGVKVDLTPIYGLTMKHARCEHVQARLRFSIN
Kind of series: CYP450 inhibition in human liver microsomes, CYP1A2. To be noted: pH 7.4, read-out: % CYP inhibition @ 10 µM 1A2. Type of series: in vitro ADME. The source says: (§1) According to standard methods in the field for the study of cytochrome P450 enzyme systems, such as the method described in Kerns, Edward H. and Di Li et al., Drug-like Properties: Concepts, Structure Design and Methods: from ADME to Toxicity Optimization (2008), San Diego, Academic Press, and Lin, Tong et al., In Vitro Assessment of Cytochrome P450 Inhibition: Strategies for Increasing LC/MS-Based Assay Throughput Using a One-Point IC50 Method and Multiplexing High-Performance Liquid Chromatography (J. Pharm. Sci. 2007, 96 (9), 2485). The inhibitory effect of the disclosed compounds on the cytochrome P450 enzyme system was similarly examined below.
(§2) Human liver microsomes were purchased from Corning or Xenotech. The test compounds were evaluated by detecting the metabolism of substrates for different Cyp450 isoforms by human liver microsomes.
(§3) 0.1 M potassium phosphate buffer (K-buffer, pH 7.4) was pre-warmed.
(§4) 100 mM K-buffer was prepared by mixing 9.5 mL of stock solution A (1 M potassium dihydrogen phosphate, prepared by dissolving 136.5 g of potassium dihydrogen phosphate in 1 L of Milli-Q water) with 40.5 mL of stock solution B (1 M potassium hydrogen phosphate, prepared by dissolving 174.2 g of potassium hydrogen phosphate in 1 L of Milli-Q water). The total volume was adjusted to 500 mL with Milli-Q water, and the buffer was titrated to pH 7.4 using KOH or H3PO4.
(§5) Test compound solution and specific inhibitor solution (400× dilution) were prepared in a 96-well plate. For the test compound, 8 µL of 10 mM test compound was transferred into 12 µL of ACN. For specific inhibitors of CYP1A2, CYP2C9, and CYP2D6: 12 µL of 1 mM α-naphthoflavone, 10 µL of 40 mM sulfaphenazole, 10 µL of 10 mM quinidine, and 8 µL of DMSO were mixed. For specific inhibitors of CYP3A4, CYP2B6, CYP2C8, and CYP2C19: 8 µL of DMSO stock solution was added to 12 µL of ACN.
(§6) A 4× diluted NADPH solution was prepared by dissolving 66.7 mg of NADPH in 10 mL of 0.1 M K-buffer (pH 7.4). […]
(In general: Liver microsomes are a subcellular fraction often used to study metabolism.)
The inhibition is the drop in the measured response relative to a control, in per cent. `CC1(n2c(-c3ccc(NC(=O)C(=O)Nc4ccc(N5CCC6(CCOC6)CC5)cc4)cc3)cc3cc(F)c(-c4nnn[nH]4)cc32)CCC1` [Example 68]: the inhibition at 10 min, 10 µM came to 11.4%.
`O=C(Nc1ccc(-c2cc3cc(F)c(-c4nnn[nH]4)cc3n2C2CCC2)cc1)C(=O)Nc1ccc(N2CCC(CO)CC2)cc1` [Example 23]: the inhibition at 10 min, 10 µM is 17.1%.
Same read-out and setting: with `O=C(Nc1ccc(-c2cc3cc(F)c(-c4nnn[nH]4)cc3n2C2CCC2)cc1)C(=O)Nc1ccc(N2CCC3(CCOC3)CC2)cc1` [Example 67] the figure was 9.47%.

The target of the next series is T2, CYP2C19 (Homo sapiens, UniProt P33261).
T2 construct: tissue Corning or Xenotech; host or cells: human liver microsomes
T2 sequence (P33261 whole entry): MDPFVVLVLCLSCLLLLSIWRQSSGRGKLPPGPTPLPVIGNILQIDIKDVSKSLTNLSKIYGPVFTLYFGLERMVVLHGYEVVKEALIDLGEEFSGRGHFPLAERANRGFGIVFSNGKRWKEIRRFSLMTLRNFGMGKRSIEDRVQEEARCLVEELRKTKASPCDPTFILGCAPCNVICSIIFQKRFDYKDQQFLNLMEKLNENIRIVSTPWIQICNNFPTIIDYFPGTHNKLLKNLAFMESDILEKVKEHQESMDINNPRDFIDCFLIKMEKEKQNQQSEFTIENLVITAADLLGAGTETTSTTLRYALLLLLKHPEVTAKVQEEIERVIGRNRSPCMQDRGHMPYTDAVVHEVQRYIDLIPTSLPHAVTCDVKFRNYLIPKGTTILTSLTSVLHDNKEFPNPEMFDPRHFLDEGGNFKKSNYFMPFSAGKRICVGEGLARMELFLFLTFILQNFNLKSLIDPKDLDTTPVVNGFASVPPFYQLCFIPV
Kind of series: CYP450 inhibition in human liver microsomes, CYP2C19. Type of series: in vitro ADME. To be noted: pH 7.4, read-out: % CYP inhibition @ 10 µM 2C19.
Excerpt: as §1, §2, §3, §4, §5, §6
As for `CC1(n2c(-c3ccc(NC(=O)C(=O)Nc4ccc(N5CCC6(CCOC6)CC5)cc4)cc3)cc3cc(F)c(-c4nnn[nH]4)cc32)CCC1` [Example 68], the inhibition at 45 min, 10 µM is 13.5%.
Still for that read-out and setting: then `O=C(Nc1ccc(-c2cc3cc(F)c(-c4nnn[nH]4)cc3n2C2CCC2)cc1)C(=O)Nc1ccc(N2CCC(CO)CC2)cc1` [Example 23], with 1.78%; and `O=C(Nc1ccc(-c2cc3cc(F)c(-c4nnn[nH]4)cc3n2C2CCC2)cc1)C(=O)Nc1ccc(N2CCC3(CCOC3)CC2)cc1` [Example 67], with 13.9%.
